Where two headings read alike, the source gives them in different places. Blank lines part the entries; values can stand above or below the molecule they belong to.
Assays:
[1] = rat, in vivo
Procedure: In vivo biodistribution: 0.1 ml Tc^99m prep was injected i.v. into a laterial tail vein of 6 anaesthetised rats.
At 2 minutes and 60 minutes post-injection, 3 rats were sacrificed by decapitation, bled from the neck and dissected. The following organs were removed at dissection: kidney; bladder(+ urine), lung, liver, spleen, stomach, small intestine, large intestine, brain (weighed), heart (weighed), thyroid and samples of blood (weighed) and muscle (weighed), the residual carcass and the tail (injection site). Subsequently samples were counted in an automatic twin crystal gamma counter.
(§1) Percentage biodistribution of injected material was calculated (after correction for background) for all organs using the formula: [formula]
(§2) Since only samples of muscle and blood were taken, the percentage in these tissues was calculated assuming blood and muscle to represent 5.8 and 43% of total animal weight respectively using the formula: [formula]

[2] = Animal biodistribution of 99mTc complexes in guinea pigs; format: in vivo, guinea pig;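 further: Heart, liver and kidney plus urine values are percent of the injected material, background-corrected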
Procedure: as §1, §2
Since only samples of muscle and blood were taken, the percentage in these tissues was calculated assuming blood and muscle to represent 5.8 and 43% of total animal weight respectively using the formula: [formula] where CF= 0.058 for blood

[3] = guinea pig, 60 min p.i. in vivo, mean
[4] = guinea pig, 2 min p.i. in vivo, mean
[5] = Table VIII, [TcL3 ]^+ complex of the ligand, guinea pigs, 2 min p.i.
[6] = Table VIII, [TcL3 ]^+ complex of the ligand, guinea pigs, 60 min p.i.

HEART/BLOOD ([1]; 2 min): 14.0
HEART/LIVER ([1]; 2 min): 1.82
Heart ([1]; 2 min): 1.87
HEART/BLOOD ([1]; 60 min): 345
HEART/LIVER ([1]; 60 min): 17.1
Heart ([1]; 60 min): 1.77
Structure (SMILES): COCCOCC(COC)(CP(C)C)CP(C)C [PL46]

Structure (SMILES): COC(CC(OC)P(C)C)P(C)C (centres unmarked) [PL30]
HEART/BLOOD ([1]; 2 min): 2.78
HEART/LIVER ([1]; 2 min): 5.01
Heart ([1]; 2 min): 1.30

Structure (SMILES): COC(CC(OC)P(C)C)P(C)C.COC(CC(OC)P(C)C)P(C)C.COC(CC(OC)P(C)C)P(C)C.[99Tc+] (centres unmarked) [Example 16]
Blood ([1]; 2 min): 7.15 % injected dose/organ
Heart ([1]; 2 min): 1.30 % injected dose/organ
Heart/Blood Counts/Gram ratio ([1]; 2 min): 2.78
Heart/Liver Counts/Gram ratio ([1]; 2 min): 1.14
Heart/Lung Counts/Gram ratio ([1]; 2 min): 0.5
Heart/Muscle Counts/Gram ratio ([1]; 2 min): 5.01
Kidney + Urine ([1]; 2 min): 9.33 % injected dose/organ
Liver ([1]; 2 min): 17.4 % injected dose/organ
Liver + GI ([1]; 2 min): 31.5 % injected dose/organ
Lung ([1]; 2 min): 3.57 % injected dose/organ
Muscle ([1]; 2 min): 29.1 % injected dose/organ
Blood ([1]; 60 min): 0.64 % injected dose/organ
Heart ([1]; 60 min): 0.99 % injected dose/organ
Heart/Blood Counts/Gram ratio ([1]; 60 min): 22.1
Heart/Liver Counts/Gram ratio ([1]; 60 min): 1.64
Heart/Lung Counts/Gram ratio ([1]; 60 min): 0.7
Heart/Muscle Counts/Gram ratio ([1]; 60 min): 6.4
Kidney + Urine ([1]; 60 min): 25.7 % injected dose/organ
Liver ([1]; 60 min): 8.81 % injected dose/organ
Liver + GI ([1]; 60 min): 43.3 % injected dose/organ
Lung ([1]; 60 min): 1.79 % injected dose/organ
Muscle ([1]; 60 min): 17.1 % injected dose/organ
Blood [2, 3]: 2.03 % injected dose/organ
Heart [2, 3]: 0.57 % injected dose/organ
Heart/Blood Counts/Gram ratio [2, 3]: 7.08
Heart/Liver Counts/Gram ratio [2, 3]: 0.94
Heart/Lung Counts/Gram ratio [2, 3]: 0.4
Heart/Muscle Counts/Gram ratio [2, 3]: 3.98
Kidney + Urine [2, 3]: 23.3 % injected dose/organ
Liver [2, 3]: 10.0 % injected dose/organ
Liver + GI [2, 3]: 48.6 % injected dose/organ
Lung [2, 3]: 1.01 % injected dose/organ
Muscle [2, 3]: 20.7 % injected dose/organ

Structure (SMILES): COCC(COC)(CP(C)C)CP(C)C.COCC(COC)(CP(C)C)CP(C)C.O=[N][99Tc+][Cl].[Cl-] [Example 19]
Blood ([1]; 2 min): 2.05 % injected dose/organ
Heart ([1]; 2 min): 1.56 % injected dose/organ
Heart/Blood Counts/Gram ratio ([1]; 2 min): 10.9
Heart/Liver Counts/Gram ratio ([1]; 2 min): 1.56
Heart/Lung Counts/Gram ratio ([1]; 2 min): 1.8
Heart/Muscle Counts/Gram ratio ([1]; 2 min): 4.57
Kidney + Urine ([1]; 2 min): 8.94 % injected dose/organ
Liver ([1]; 2 min): 13.2 % injected dose/organ
Liver + GI ([1]; 2 min): 35.3 % injected dose/organ
Lung ([1]; 2 min): 1.33 % injected dose/organ
Muscle ([1]; 2 min): 36.2 % injected dose/organ
Blood ([1]; 60 min): 0.14 % injected dose/organ
Heart ([1]; 60 min): 1.47 % injected dose/organ
Heart/Blood Counts/Gram ratio ([1]; 60 min): 192
Heart/Liver Counts/Gram ratio ([1]; 60 min): 17.2
Heart/Lung Counts/Gram ratio ([1]; 60 min): 3.6
Heart/Muscle Counts/Gram ratio ([1]; 60 min): 5.6
Kidney + Urine ([1]; 60 min): 11.0 % injected dose/organ
Liver ([1]; 60 min): 1.03 % injected dose/organ
Liver + GI ([1]; 60 min): 45.5 % injected dose/organ
Lung ([1]; 60 min): 0.68 % injected dose/organ
Muscle ([1]; 60 min): 28.2 % injected dose/organ
Blood [2, 4]: 3.77 % injected dose/organ
Heart [2, 4]: 1.36 % injected dose/organ
Heart/Blood Counts/Gram ratio [2, 4]: 8.66
Heart/Liver Counts/Gram ratio [2, 4]: 2.20
Heart/Lung Counts/Gram ratio [2, 4]: 0.9
Heart/Muscle Counts/Gram ratio [2, 4]: 4.65
Kidney + Urine [2, 4]: 15.5 % injected dose/organ
Liver [2, 4]: 11.0 % injected dose/organ
Liver + GI [2, 4]: 35.0 % injected dose/organ
Lung [2, 4]: 1.57 % injected dose/organ
Muscle [2, 4]: 38.6 % injected dose/organ
Blood [2, 3]: 0.48 % injected dose/organ
Heart [2, 3]: 1.05 % injected dose/organ
Heart/Blood Counts/Gram ratio [2, 3]: 49.6
Heart/Liver Counts/Gram ratio [2, 3]: 17.5
Heart/Lung Counts/Gram ratio [2, 3]: 2.0
Heart/Muscle Counts/Gram ratio [2, 3]: 4.77
Kidney + Urine [2, 3]: 18.1 % injected dose/organ
Liver [2, 3]: 0.92 % injected dose/organ
Liver + GI [2, 3]: 45.9 % injected dose/organ
Lung [2, 3]: 0.52 % injected dose/organ
Muscle [2, 3]: 30.6 % injected dose/organ

HEART/BLOOD ([1]; 2 min): 4.07
HEART/LIVER ([1]; 2 min): 0.46
Heart ([1]; 2 min): 0.88
HEART/BLOOD ([1]; 60 min): 35.3
HEART/LIVER ([1]; 60 min): 1.65
Heart ([1]; 60 min): 0.55
Structure (SMILES): CP(C)CC1(CP(C)C)COC(C)(C)OC1 [PL35]

Structure (SMILES): COCC(COC)(CP(C)C)CP(C)C.COCC(COC)(CP(C)C)CP(C)C.COCC(COC)(CP(C)C)CP(C)C.[99Tc+] [Example 18]
Blood ([1]; 2 min): 2.85 injected dose/organ
Heart ([1]; 2 min): 1.87 injected dose/organ
Heart/Blood Counts/Gram ratio ([1]; 2 min): 10.4
Heart/Liver Counts/Gram ratio ([1]; 2 min): 1.68
Heart/Lung Counts/Gram ratio ([1]; 2 min): 1.2
Heart/Muscle Counts/Gram ratio ([1]; 2 min): 8.45
Kidney + Urine ([1]; 2 min): 10.6 injected dose/organ
Liver ([1]; 2 min): 16.3 injected dose/organ
Liver + GI ([1]; 2 min): 36.4 injected dose/organ
Lung ([1]; 2 min): 2.59 injected dose/organ
Muscle ([1]; 2 min): 26.3 injected dose/organ
Blood ([1]; 60 min): 0.14 injected dose/organ
Heart ([1]; 60 min): 1.41 injected dose/organ
Heart/Blood Counts/Gram ratio ([1]; 60 min): 152
Heart/Liver Counts/Gram ratio ([1]; 60 min): 8.42
Heart/Lung Counts/Gram ratio ([1]; 60 min): 3.2
Heart/Muscle Counts/Gram ratio ([1]; 60 min): 8.36
Kidney + Urine ([1]; 60 min): 12.2 injected dose/organ
Liver ([1]; 60 min): 2.45 injected dose/organ
Liver + GI ([1]; 60 min): 49.92 injected dose/organ
Lung ([1]; 60 min): 0.75 injected dose/organ
Muscle ([1]; 60 min): 19.4 injected dose/organ
Blood [2, 4]: 5.14 % injected dose/organ
Heart [2, 4]: 1.2 % injected dose/organ
Heart/Blood Counts/Gram ratio [2, 4]: 5.7
Heart/Liver Counts/Gram ratio [2, 4]: 1.12
Heart/Lung Counts/Gram ratio [2, 4]: 0.6
Heart/Muscle Counts/Gram ratio [2, 4]: 6.5
Kidney + Urine [2, 4]: 14.5 % injected dose/organ
Liver [2, 4]: 17.3 % injected dose/organ
Liver + GI [2, 4]: 36.9 % injected dose/organ
Lung [2, 4]: 1.65 % injected dose/organ
Muscle [2, 4]: 27.4 % injected dose/organ
Blood [2, 3]: 0.46 % injected dose/organ
Heart [2, 3]: 1.06 % injected dose/organ
Heart/Blood Counts/Gram ratio [2, 3]: 56.1
Heart/Liver Counts/Gram ratio [2, 3]: 5.63
Heart/Lung Counts/Gram ratio [2, 3]: 1.9
Heart/Muscle Counts/Gram ratio [2, 3]: 6.14
Kidney + Urine [2, 3]: 15.0 % injected dose/organ
Liver [2, 3]: 2.6 % injected dose/organ
Liver + GI [2, 3]: 53.3 % injected dose/organ
Lung [2, 3]: 0.56 % injected dose/organ
Muscle [2, 3]: 23.7 % injected dose/organ

Structure (SMILES): CCOCCOCCOC(CP(C)C)CP(C)C [PL41]
HEART/BLOOD ([1]; 2 min): 7.83
HEART/LIVER ([1]; 2 min): 0.83
Heart ([1]; 2 min): 1.08
HEART/BLOOD ([1]; 60 min): 122
HEART/LIVER ([1]; 60 min): 4.65
Heart ([1]; 60 min): 1.02

HEART/BLOOD ([1]; 2 min): 1.13
HEART/LIVER ([1]; 2 min): 0.11
Heart ([1]; 2 min): 0.32
HEART/BLOOD ([1]; 60 min): 131
HEART/LIVER ([1]; 60 min): 0.24
Heart ([1]; 60 min): 0.18
Structure (SMILES): CP(C)CC1(CP(C)C)CCOCC1 [PL49]

Structure (SMILES): COC(CC(OC)P(C)C)P(C)C.COC(CC(OC)P(C)C)P(C)C.O=[N][99Tc+][Cl].[Cl-] (centres unmarked) [Example 17]
Blood ([1]; 60 min): 0.44 % injected dose/organ
Heart ([1]; 60 min): 1.23 % injected dose/organ
Heart/Blood Counts/Gram ratio ([1]; 60 min): 39.1
Heart/Liver Counts/Gram ratio ([1]; 60 min): 2.47
Heart/Lung Counts/Gram ratio ([1]; 60 min): 2.7
Heart/Muscle Counts/Gram ratio ([1]; 60 min): 5.51
Kidney + Urine ([1]; 60 min): 15.8 % injected dose/organ
Liver ([1]; 60 min): 6.03 % injected dose/organ
Liver + GI ([1]; 60 min): 47.9 % injected dose/organ
Lung ([1]; 60 min): 0.72 % injected dose/organ
Muscle ([1]; 60 min): 22.9 % injected dose/organ
Blood [2, 3]: 1.31 % injected dose/organ
Heart [2, 3]: 0.70 % injected dose/organ
Heart/Blood Counts/Gram ratio [2, 3]: 13.9
Heart/Liver Counts/Gram ratio [2, 3]: 4.21
Heart/Lung Counts/Gram ratio [2, 3]: 1.3
Heart/Muscle Counts/Gram ratio [2, 3]: 6.81
Kidney + Urine [2, 3]: 17.6 % injected dose/organ
Liver [2, 3]: 2.76 % injected dose/organ
Liver + GI [2, 3]: 57.1 % injected dose/organ
Lung [2, 3]: 0.55 % injected dose/organ
Muscle [2, 3]: 1.60 % injected dose/organ

general trend of biodistribution compared with dmpe complexes [1]: show the same general trend
Heart ([1]; 2 min): 0.96 % injected dose
Heart/Blood Counts/Gram ratio ([1]; 2 min): 9.05
Heart/Liver Counts/Gram ratio ([1]; 2 min): 0.57
Heart/Muscle Counts/Gram ratio ([1]; 2 min): 4.99
Liver ([1]; 2 min): 20.45 % injected dose
Heart ([1]; 60 min): 0.94 % injected dose
Heart/Blood Counts/Gram ratio ([1]; 60 min): 49.63
Heart/Liver Counts/Gram ratio ([1]; 60 min): 7.26
Heart/Muscle Counts/Gram ratio ([1]; 60 min): 4.17
Liver ([1]; 60 min): 1.62 % injected dose
Heart [2, 5]: 0.96 % injected dose
Heart/Blood Counts/Gram ratio [2, 5]: 1.59
Heart/Liver Counts/Gram ratio [2, 5]: 0.51
Heart/Muscle Counts/Gram ratio [2, 5]: 9.19
Liver [2, 5]: 24.85 % injected dose
Heart [2, 6]: 0.43 % injected dose
Heart/Blood Counts/Gram ratio [2, 6]: 7.82
Heart/Liver Counts/Gram ratio [2, 6]: 0.30
Heart/Muscle Counts/Gram ratio [2, 6]: 4.60
Liver [2, 6]: 26.13 % injected dose
Structure (SMILES): COCP(C)CCP(C)C (centres unmarked) [Example 2, Me2 P-(CH2)2 -P(Me) (CH2 OMe)]

Source: US4916214A, “Cationic complexes of technetium-99m” (Amersham International plc., priority 1987, dated 1990)
